The source of these data is patent US10905683B2, “Compositions and uses of amidine derivatives” (BIOCRYST PHARMACEUTICALS, INC., priority 2014, dated 2021).

Values after ≈ are worked out from the molar mass of the structure shown.

Series [1] can be described thus: octanol-PBS pH 7.4 partition coefficient (log D7.4) assay. The following applies: octanol/0.01 M phosphate buffer pH 7.4, 24 hours, LC/MS/MS. The class given is physicochemical. The method, then: A 1 μL volume of a 1 mM stock solution of the compound in dimethyl sulfoxide (DMSO) was added to 500 μL 0.01 M phosphate buffer pH 7.4 (saturated with octanol) and 500 μL of octanol (saturated with 0.01 M phosphate buffer). […] Samples were prepared in triplicate.

Series [2] is described as follows: Polymorphic conversion of Form A under relative humidity. The class given is physicochemical. The following applies: RH 43%, 75% and 100%, room temperature. From the text: In another embodiment, pharmaceutical compositions of Form A, in particular the oral pharmaceutical compositions described herein, when administered to a subject provide for increased bioavailability of the compound as compared to amorphous 3-[2-(4-carbamimidoyl-phenylcarbamoyl)-5-methoxy-4-vinylphenyl]-6-(cyclopropylmethyl-carbamoyl)-pyridine-2-carboxylic acid and salts thereof and other crystalline forms. In another embodiment, pharmaceutical compositions of Form A, in particular the oral pharmaceutical compositions described herein, when administered to a subject for treating a condition, is sufficient to affect such treatment. In another embodiment, pharmaceutical compositions of Form A, in particular the oral pharmaceutical compositions described herein, when administered to a subject for treating a condition, is sufficient to affect such treatment when dosed 1 to 3 times per day or less (such as 1 to 2 times). In another embodiment, pharmaceutical compositions of Form A, in particular the oral pharmaceutical compositions described wherein when administered to a subject provide for a therapeutically effective amount of the compound of at least 10 ng/ml, at least 15 ng/ml or at least 25 ng/ml in the blood of the subject for a period of at least from two hours to four hours after administration to a subject. […]

Series [3] in a line: Concentration achieved in formulations and excipient mixtures. The class given is physicochemical. The following applies: in the (oral) pharmaceutical compositions described. The method, then:
In initial formulation work for the amidine compounds described herein, in particular 3-[2-(4-carbamimidoyl-phenylcarbamoyl)-5-methoxy-4-vinyl-phenyl]-6-(cyclopropylmethyl-carbamoyl)-pyridine-2-carboxylic acid, extensive studies were carried out to identify a suitable mixture of excipients to produce the oral formulation described herein.
Specifically, a variety of approaches were taken to develop suitable oral formulations of 3-[2-(4-carbamimidoyl-phenylcarbamyl)-5-methoxy-4-vinyl-phenyl]-6-(cyclopropylmethyl-carbamoyl)-pyridine-2-carboxylic acid. The approaches taken included use of a variety of hydrophilic polymers, including α-cyclodextrin and a polyanionic 3-cyclodextrin derivative with a sodium sulfonate salt separated from the lipophilic cavity by a butyl ether or sulfobutylether spacer group in combination with a variety of co-solvents. In addition, the compound was evaluated in formulations created by a number of different technologies (such as dry blends, nanosuspensions, solid dispersion and emulsions) using a variety of approaches.

A short description of series [4]: Aqueous solubility assay in buffer and simulated gastric/intestinal fluids. Conditions: 37 °C, thermodynamic from solid, Observed Solubility, Target 100 μM, 24 hours. The method, then:
The target concentration in each solution was 100 μM. […] The aqueous solutions were added (1 mL) to the dried samples and mixed at 400 rpm at 37° C. on an orbital plate shaker. […] Samples were prepared in triplicate. Testosterone and verapamil were used as reference compounds.

Usually logD stands for lipophilicity at a set pH, counting ionised and neutral species. `C[C@@H]1C[C@H]2[C@@H]3CCC4=CC(=O)C=C[C@]4(C)[C@@]3(F)[C@@H](O)C[C@]2(C)[C@@]1(O)C(=O)CO` [Dexamethasone, reference compound] had a logD at 24 h in series [1] of 1.5.
In the case of `C=Cc1cc(C(=O)Nc2ccc(C(=N)N)cc2)c(-c2ccc(C(=O)NCC3CC3)nc2C(=O)O)cc1OC.Cl` [Form A, 3-[2-(4-Carbamimidoylphenylcarbamoyl)-5-methoxy-4-vinylphenyl]-6-(cyclopropylmethylcarbamoyl)pyridine-2-carboxylic acid hydrochloride], in series [2], the “conversion to other polymorphic forms” value is on record as “not observed”. For the same molecule, in series [3], the concentration solubilized entry is “greater than 140 mg/ml”.
Usually solubility stands for the concentration that dissolves in the medium under given conditions. As to `C[C@]12CC[C@H]3[C@@H](CCC4=CC(=O)CC[C@@]43C)[C@@H]1CC[C@@H]2O` [Testosterone, reference compound], the solubility at 24 h in series [4] (fassgf or other biorelevant, Fasted-State SGF) is 43 µM (≈ 12.4 µg/mL); in series [4] (fassgf or other biorelevant, Fed-State SGF) it was 27 µM (≈ 7.79 µg/mL); in series [4] (fassif, Fasted-State SIF), 35 µM (≈ 10.1 µg/mL); in series [4] (fessif, Fed-State SIF), 36 µM (≈ 10.4 µg/mL); in series [4] (pH 7.4, aqueous buffer, 0.1M phosphate buffer pH 7.4, 37° C.) it was 42 µM (≈ 12.1 µg/mL).
